Measured values taken from patent US20060014193A1, “Nucleoside phosphoramidates and nucleoside phosphoramidases” (priority 2004, published 2006).
Marks after values point to notes of the source that are not given here.

Columns and labels:
[1] = biological target: T1, hHINT1 (Homo sapiens, UniProt P49773); conditions: literature (J. Biol. Chem. 2004, 279, 18711; 2002, 277, 10852); cited from earlier work
[2] = biological target: T2, Human Hint1-DHFR (UniProt P0ABQ4+P49773); experiment: 31P NMR phosphoramidase assay of purified protein; assay type: biochemical; conditions: 10 mM substrate, pH 7.2, 22° C.
T2 construct: made in house; host or cells: E. coli (following the procedure for the hinT plasmid)
Method: (§1) Phosphoramidase activity in cell lysates was measured by the ^1H-decoupling mode of phosphorus-31 NMR spectroscopy (Varian VAC-300 spectrometer), which can clearly distinguish the substrate, AMP-NH2, and the product, adenosine 5′-monophosphate (AMP). NMR spectrometry is suitable for quantitation by integration of the area under the peak, which is proportional to the amount of nuclei present. The relative ratio of peak areas can be used to calculate the amount of turnover corrected based on a standard curve.
(§2) Cell lysates from E. coli Tuner(DE3)pLacI cells (Novagen) were obtained by treatment with lysozyme (1 mg/ml) and the DNA was precipitated by protamine sulfate followed by centrifugation to remove cell debris. The supernatant was dialyzed extensively against Buffer A (20 mM Tris (pH 7.0); 1 mM EDTA; 1 mM DTT, 0.01 mM PMSF) to remove cellular phosphates and nucleotides. Phosphate free cell lysates (0.75 mg total protein) were incubated with 5 mM AMP-NH2 in 0.5 ml reaction buffer (0.5 mM MgCl2, 20 mM HEPES (pH 7.2)) at 37° C. for intervals of 15 min, 30 min, and 12 h. The reactions were terminated by snap freezing in a dry ice/acetone slush bath and lyophilized for 5 h. The samples were then dissolved in NMR buffer (600 μL, 50 mM EDTA, 20 mM HEPES (pH 7.2), and 1 mM TMP (trimethylphosphate, internal standard)) and the insoluble portion was spun down by centrifugation at 12,500×g for 5 min. A ^31P NMR spectrum was then collected for the supernatant. For the low pH control experiment, 10 mM AMP-NH2 in reaction buffer (500 μL, pH 2.0) was incubated at 37° C. for 12 h and the 31p signal was detected under the same conditions.
(§3) Five recombinant purified proteins were tested with three commercial available compounds (Sigma): AMP-NH2, adenosine 5′-monophosphomorpholidate (AMP-Mor), and guanosine 5′-monophosphomorpholidate (GMP-Mor) (FIG. 1). The compounds (10 mM) were incubated with proteins (2.5-10 μg) in the reaction buffer (500 μL, 0.5 mM MgCl2, 20 mM HEPES (pH 7.2)) at 22° C. for intervals of 36 and 66 min. The reactions were quenched by adding 5 M NaOH (20 μL), followed by snap freezing in a dry ice/acetone slush bath, and lyophilized. The sample preparation for ^31P NMR measurement was as described above for the cell-lysate experiment except that the pH was adjusted by the addition of 12 μL 6 M HCl before NMR spectra were collected.

[3] = biological target: T1, hHINT1; experiment: 31P NMR phosphoramidase assay of purified protein; assay type: biochemical; conditions: 10 mM substrate, pH 7.2, 22° C.
Method: as §1, §2, §3

[4] = biological target: T3, Rabbit HINT1 (Oryctolagus cuniculus, UniProt P80912); experiment: 31P NMR phosphoramidase assay of purified protein; assay type: biochemical; conditions: 10 mM substrate, pH 7.2, 22° C.
T3 construct: made in house; host or cells: E. coli hinT deletion mutant
Method: as §1, §2, §3

[5] = biological target: T4, E. coli hinT (Escherichia coli, UniProt P0ACE7); experiment: 31P NMR phosphoramidase assay of purified protein; assay type: biochemical; conditions: 10 mM substrate, pH 7.2, 22° C.
T4 sequence (P0ACE7 1-119): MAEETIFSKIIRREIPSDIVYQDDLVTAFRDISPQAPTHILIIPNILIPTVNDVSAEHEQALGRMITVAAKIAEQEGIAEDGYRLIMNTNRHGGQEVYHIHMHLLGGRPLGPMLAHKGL
Method: as §1, §2, §3

[6] = biological target: T5, E. coli hinT-DHFR (Escherichia coli, UniProt P0ABQ4+P0ACE7); experiment: 31P NMR phosphoramidase assay of purified protein; assay type: biochemical; conditions: 10 mM substrate, pH 7.2, 22° C.
T5 construct: made in house; host or cells: E. coli Tuner(DE3)pLacI
Method: as §1, §2, §3

[7] = biological target: T1, hHINT1; experiment: Catalytic activity (velocity) of cloned, purified phosphoramidase with AMPNH2; assay type: biochemical
From the text: The enzyme responsible for hydrolysis of AZT amino acid phosphoramidates was cloned and characterized. After construction of a cDNA library from peripheral blood mononuclear cells (PBMCs) in T7Select10-3b phage, the phage display technique was employed to isolate the enzyme by affinity chromatography. After three rounds of phage selection and ampilification with an affinity column constructed from the L-tryptophan carbamate, DNA from ten selected plaques was amplified by PCR and sequenced. […] Hint1 is a member of the HIT protein superfamily, which consists of a recently identified adenosine 5′-monophosphoramide hydrolases from rabbit and yeast.
(§4) Velocity of the enzymes was determined at pH 7.2 at room temperature in the presence of 10 mM AMPNH2.

[8] = biological target: T3, Rabbit HINT1; conditions: Bieganowski et al, 2002; cited from earlier work
[9] = Low pH control: chemical stability in pH 2.0 buffer by 31P NMR; assay type: physicochemical; conditions: 10 mM, 37° C.
Method: as §2
Tuner(DE3)pLacI, a modified E. coli BL21 strain, was used to determine phosphoramidase activity in cell lysates. […]

[10] = biological target: T6, ycfF (Escherichia coli, UniProt P0ACE7); experiment: Catalytic activity (velocity) of cloned, purified phosphoramidase with AMPNH2; assay type: biochemical, E. coli; conditions: pH 7.2, room temperature, 10 mM AMPNH2
T6 construct: made in house
Method: The putative bacterial phosphoramidase was cloned and over-expressed as described for the human homologue, and found to be a nucleoside phosphoramidase.
as §4

Question: Which Kcat [1] does the source give for `Nc1ncnc2c1ncn2[C@@H]1O[C@H](COP(N)(=O)O)[C@@H](O)[C@H]1O` [AMP-NH2, Adenosine 5′-monophosphoramidate] here?
Answer: Its Kcat is 0.2 s⁻¹.

Question: And the Km [1]?
Answer: The Km was 0.068 µM.

Question: What about the Specific activity [2] of the same molecule?
Answer: The Specific activity was 388 ± 45 nmol nmol^−1 min^−1.

Question: And the Specific activity [3]?
Answer: The Specific activity was 196 ± 33 nmol nmol^−1 min^−1.

Question: And the Specific activity [4]?
Answer: The Specific activity was 70.0 ± 1.3 nmol nmol^−1 min^−1.

Question: What about the Specific activity [5] of the same molecule?
Answer: Its Specific activity is 526 ± 27 nmol nmol^−1 min^−1.

Question: And the Specific activity [6]?
Answer: Its Specific activity is 753 ± 2 nmol nmol^−1 min^−1.

Question: And the “Hydrolysis by over-expressed, purified human Hint1” value [7]?
Answer: Its value is “efficiently hydrolyze”.

Question: What about the Velocity ([7]; pH 7.2, room temperature, 10 mM AMPNH2) of the same molecule?
Answer: Its Velocity is 5.46 nmol/µg/min.

Question: And the Velocity [8]?
Answer: Its Velocity is 1.71^b nmol/μg/min.

Question: And the “Stability at pH 2.0 (no detectable AMP or Pi)” value [9]?
Answer: Its value is “at least 12 h”.

Question: What about the Velocity [10] of the same molecule?
Answer: The Velocity was 14.19 nmol/µg/min.
